Measurements as given in publication PMC8232621, “Antimicrobial Activity of a Library of Thioxanthones and Their Potential as Efflux Pump Inhibitors” (Pharmaceuticals, 2021).
Read-outs that look alike come from different tables or passages of the source.

Key:
S. aureus 272123 [1] = test: Real-time ethidium bromide accumulation assay (efflux pump inhibition); format: cell-based, Staphylococcus aureus; parameters: key: RFI = (RFtreated − RFuntreated)/RFuntreated at minute 60; settings: compounds 50 µM, reserpine 25 µM, minute 60, EB 1 µg/mL
Procedure: (§1) The relative fluorescence index (RFI) was calculated based on the means of relative fluorescence units, and theses RFIs are depicted in Table 4.
(§2) The compounds were evaluated for their ability to inhibit the efflux of EB, an efflux pump substrate, in Salmonella enterica serovar Typhimurium SE03 and S. aureus 272123 strains, through real-time fluorimetry, monitoring the intracellular accumulation of EB, an efflux pump substrate. This was determined by the automated method using a CLARIOstar Plus plate reader (BMG Labtech, Ortenberg, Germany). Reserpine and CCCP were applied at 25 µM as positive controls, and the solvent DMSO was applied at 1% v/v. The bacterial strains were incubated in an appropriate culture media (TSB–S. aureus 272123; LB-B–SE03) at 37 °C until they reached an optical density (OD) of 0.6 at 600 nm. The culture was centrifuged at 13,000× g for 3 min, and the pellet was washed and resuspended with phosphate buffered saline (PBS, pH 7.4). The suspension was centrifuged again in the same conditions and resuspended in PBS.
(§3) Then, 50 µL of this solution were transferred into a 96-well black microtiter plate (Greiner Bio-One Hungary Kft, Mosonmagyaróvár, Fertősor, Hungary), and 50 µL of bacterial suspension (OD600 = 0.6) were added to each well. The plates were placed into the CLARIOstar plate reader, and the fluorescence was monitored at excitation and emission wavelengths of 530 nm and 600 nm, respectively, every minute for one hour on a real-time basis. From the real-time data, the activity of the compounds, namely the relative fluorescence index (RFI) of the last time point (minute 60) of the EB accumulation assay, was calculated according to the following equation:(1) RFI=RFtreated−RFuntreated/RFuntreated where RFtreated is the relative fluorescence (RF) at the last time point of EB accumulation curve in the presence of the compound, and RFuntreated is the RF at the last time point of the EB accumulation curve of the untreated control, having only the solvent (DMSO) control. The accumulation curves were designed using Microsoft Excel®. The samples were tested in triplicate, and the RFI presented comes from the average of these three values. The accumulation graphs present the mean of the RF at the last time point. The standard deviation (SD) was calculated automatically and included in the RF graphs.

SE03 = test: as above; format: cell-based, Salmonella enterica serovar Typhimurium SL1344; settings: compounds 50 µM (compound 12 at 17 µM), CCCP 25 µM, minute 60, EB 1 µg/mL
Procedure: as §1, §2, §3

S. aureus ATCC 29213 = test: Inhibition of biofilm formation (crystal violet); format: cell-based; settings: Staphylococcus aureus, ATCC29213, 48 h
S. aureus 272123 [2] = test: Inhibition of biofilm formation (crystal violet); format: cell-based, Staphylococcus aureus; settings: read-out: Biofilm Inhibition (%) ± SD
Procedure: Efflux mechanisms are one of the factors that can lead to biofilm-mediated resistance, along with slow growth and reduced penetration due to production of extracellular polysaccharides. […] Additionally, they can also modulate QS, through an influence in the transport of QS signal molecules. Thioxanthones 2–18 were tested for their potential for inhibiting biofilm formation by S. aureus ATCC 29213 and the multi-resistant S. aureus 272123. The biofilm inhibition, presented in percentage (%), was calculated based on the mean of absorbance units. Reserpine, which has previously been described as both an efflux pump inhibitor and an inhibitor of biofilm formation in Gram-positive bacteria was used as control in both strains.
The thioxanthone derivatives were tested for their ability to decrease the formation of biofilm. The bacterial strains used were the Gram-positive S. aureus […] and S. aureus 272123. The detection of the biofilm formation was carried out using the dye crystal violet (CV; 0.1% v/v). The initial inoculum was incubated in TSB overnight, and then diluted to an OD600 of 0.1. […] This meant that compound 12 was added at 50 µM, while the rest of the compounds were added at the concentration of 100 µM. The final volume in each well was 200 µL. Reserpine was used as a positive control, as it was the same compound used in the efflux pump inhibition assay and it has shown activity in the inhibition of biofilm formation in S. aureus strains. The plates were incubated at 30 °C for 48 h, with gentle stirring (100 rpm). After this incubation period, the TSB medium was discarded, and the plates were washed with tap water to remove unattached cells. Afterwards, 200 µL of a 0.1% v/v CV solution were added to the wells and incubated for 15 min at room temperature. Then, the CV solution was removed from the wells, and the plates were washed again with tap water, and 200 µL of a 70% ethanol solution was added to the wells. The biofilm formation was determined by measuring the OD600 using a Multiscan EX ELISA plate reader (Thermo Labsystems, Cheshire, WA, USA). The anti-biofilm effect of the compounds was expressed in the percentage (%) of decrease of biofilm formation.

S. marcescens = test: Quorum sensing inhibition assay (pigment production); format: cell-based, Serratia marcescens AS-1; settings: Serratia marcescens, read-out: Quorum Sensing Inhibition (mm) ± SD
Procedure: (§4) Concerning the QS inhibition assay, the sensor strain Chromobacterium violaceum CV026 and the AHL producer strain Sphingomonas paucimobilis Ezf 10-17 (EZF) were inoculated as parallel lines, and the AHL producers Chromobacterium violaceum wild-type 85 (wt85) and Serratia marcescens AS-1 were inoculated as a single line. The interaction between the strains and compounds 2–18 was evaluated as the reduction of pigment production, in millimeters (mm) (Table 5) with promethazine (PMZ) as a positive control.
(§5) The QS inhibitory effect of the compounds was examined on the EZF and the sensor CV026 strains, on the wt85 strain, and on S. marcescens. The method used was the parallel inoculation method, where pair combinations of the used sensor strain CV026 and the N-acyl-homoserine lactone (AHL) producing strain EZF were inoculated directly onto the LB*-A agar surface in parallel, at an approximate distance of 5 mm from each other. S. marcescens AS-1 and wt85 were inoculated as a single line. Filter paper disks (7 mm in diameter) were placed on the center of the inoculated line(s) and impregnated with 8 µL of a solution of 10 mM of the compounds. […] The agar plates were incubated at room temperature (20 °C) for 24−48 h. The QS inhibition was accessed visually, through the inhibition of pigment production. The discolored, but intact, bacterial colonies were measured with a ruler.

wt85 = test: as above; format: cell-based, Chromobacterium violaceum wild-type 85; settings: Chromobacterium violaceum, read-out: Quorum Sensing Inhibition (mm) ± SD
Procedure: as §4, §5

EZF + CV026 = test: Quorum sensing inhibition assay (pigment production), parallel inoculation; format: cell-based; settings: disk with 8 µL of 10 mM solution, read-out: Quorum Sensing Inhibition (mm) ± SD
Procedure: as §4, §5

[3] = S. aureus ATCC 29213, compounds 100 µM (compound 12 at 50 µM), read-out: Biofilm Inhibition (%) ± SD
[4] = Staphylococcus aureus, S. aureus 272123, compounds 100 µM (compound 12 at 50 µM), 48 h

Row | Compound | RFI ± SD (S. aureus 272123 [1]) | RFI ± SD (SE03) | inhibition at 100 µM (S. aureus ATCC 29213; [3]) [%] | inhibition at 100 µM (S. aureus 272123 [2]; [4]) [%] | zone of inhibition at 10000 µM (S. marcescens) [mm] | zone of inhibition at 10000 µM (wt85) [mm] | zone of inhibition at 10000 µM (EZF + CV026) [mm] | inhibition at 100 µM (S. aureus ATCC 29213; read-out: Biofilm Inhibition (%) ± SD, S. aureus ATCC 29213, compounds 100 µM (compound 12 at 50 µM)) [%] | inhibition at 100 µM (S. aureus 272123 [2]; Staphylococcus aureus, 272123, 48 h) [%]
1 | CCCOc1ccc(NCCN(CC)CC)c2c(=O)c3ccccc3sc12 [Compound 2] | 0.75 ± 0.08 | −0.02 ± 0.04 | 0.53 ± 1.05 | 81.1 ± 1.18 | 0 | 0 | 0 |  | 
2 | CCCOc1ccc(N2CCCCC2)c2c(=O)c3ccccc3sc12 [Compound 3] | 1.50 ± 0.04 | 0.67 ± 0.01 |  |  | 0 | 0 | 31 ± 0.8 | > 90 | 93.49 ± 0.33
3 | CCCOc1ccc(Nc2nc(C)cc(C)n2)c2c(=O)c3ccccc3sc12 [Compound 8, 1-[(4,6-Dimethylpyrimidin-2-yl)amino]-4-propoxy-9H-thioxanthen-9-one] | 0.24 ± 0.07 | 0.74 ± 0.08 | 0 | 0 | 0 | 0 | 32 ± 0.1 |  | 
4 | CCCOc1ccc(N2CCNC(=O)C2)c2c(=O)c3ccccc3sc12 [Compound 9, 4-(9-Oxo-4-propoxy-9H-thioxanthen-1-yl)piperazin-2-one] | 0.14 ± 0.02 | 1.54 ± 0.09 | 5.18 ± 1.02 | 31.5 ± 8.99 | 0 | 0 | 0 |  | 
5 | CCCOc1ccc(NCCO)c2c(=O)c3ccccc3sc12 [Compound 10, 1-[(2-Hydroxyethyl)amino]-4-propoxy-9H-thioxanthen-9-one] | 4.71 ± 0.78 | 6.00 ± 0.80 | 0 | 55.2 ± 4.2 | 0 | 0 | 0 |  | 
6 | CCCOc1ccc(NCCN2CCOCC2)c2c(=O)c3ccccc3sc12 [Compound 11, 1-[(2-Morpholinoethyl)amino]-4-propoxy-9H-thioxanthen-9-one] | 0.89 ± 0.06 | 1.37 ± 0.054 | 0 | 20.2 ± 4 | 31 ± 0.8 | 0 | 0 |  | 
7 | CCCOc1ccc(NS(=O)(=O)c2ccc(C(=O)O)cc2)c2c(=O)c3ccccc3sc12 [Compound 12, 4-[N-(9-Oxo-4-propoxy-9H-thioxanthen-1-yl)sulfamoyl]benzoic acid] | 0.29 ± 0.19 | −0.21 ± 0.07 | ~53 |  | 0 | 0 | 0 |  | 
8 | CCCOc1ccc(NS(=O)(=O)c2ccc(N)cc2)c2c(=O)c3ccccc3sc12 [Compound 13, 4-Amino-N-(9-oxo-4-propoxy-9H-thioxanthen-1-yl)benzenesulfonamide] | −0.18 ± 0.05 | 1.23 ± 0.18 | 0.42 ± 1.36 | 72 ± 6.66 | 0 | 0 | 51 ± 0.1 |  | 
9 | CCCOc1ccc(Br)c2c(=O)c3ccccc3sc12 [Compound 14, 1-Bromo-4-propoxy-9H-thioxanthen-9-one] | 1.13 ± 0.13 | 0.87 ± 0.11 | 0 | 2.46 ± 0.72 | 0 | 0 | 0 |  | 
10 | CCCOc1ccc2ncnc3c2c1Sc1ccccc1-3 [Compound 15] | −0.07 ± 0.50 | 0.54 ± 0.11 | 0 | 76 ± 2.06 | 32 ± 0.5 | 0 | 50 ± 0.1 |  | 
11 | CCCOc1ccc2nc(N)nc3c2c1Sc1ccccc1-3 [Compound 16] | 0.96 ± 0.27 | 7.52 ± 0.01 | 0 | 73.6 ± 1.8 | 0 | 0 | 29 ± 0.8 |  | 
12 | CCCOc1ccc2nc(NCc3ccccc3Cl)nc3c2c1Sc1ccccc1-3 [Compound 17] | 9.69 ± 0.95 | 25.51 ± 2.93 | 0 | 6.32 ± 4.32 | 0 | 0 | 49 ± 0.5 |  | 
13 | CCCOc1ccc2c3c(n/c(=N\c4ccccc4C)n2-c2ccccc2C)-c2ccccc2Sc13 [Compound 18] | 0.20 ± 0.03 | 0.20 ± 0.02 | 19.7 ± 7.46 | 1.62 ± 2.43 | 0 | 0 | 0 |  | 
